This is an account of results in paper PMC4766439, “Discovery of novel PDE9 inhibitors capable of inhibiting Aβ aggregation as potential candidates for the treatment of Alzheimer’s disease” (Scientific Reports, 2016).

A value given as a limit tells only on which side of the number the result lay.

In one data set the target is T1, PDE4D2 (86–413) (Homo sapiens, UniProt Q08499).
T1 construct: PDE4D2 (86–413)
Put plainly: PDE activity assay, PDE4D2 catalytic domain. The class given is biochemical.

Another data set concerns the target T2, Aβ1-42 fibrils (Homo sapiens, UniProt P05067).
T2 construct: purchased Sigma
The data set is described as follows: ThT assay, disaggregation of Cu^2+-induced Aβ1-42 fibrils. Type of data set: biochemical. To be noted: [Aβ1-42] = 25 μM, compound 50 μM, [Cu^2+] = 25 μM, additional 24 h. As to the method:
For assaying the disaggregation of the copper (II)-induced Aβ1-42 fibrils, the Aβ1-42 stock solution was first diluted in HEPES buffer ([…], pH 6.6). The mixture of the peptide (10 μL, 25 μM final concentration) and copper (II) (10 μL, 25 μM final concentration) was then incubated at 37 °C for 24 h. Then, the test compound (10 μL, 50 μM final concentration) was added and incubated at 37 °C for an additional 24 h. Thereafter, 30 μL of the sample was diluted to a final volume of 200 μL with 50 mM glycine-NaOH buffer (pH 8.0) containing thioflavin-T (5 μM) in the dark. The detection method used was the same as that described above.

A further data set concerns the target T3, PDE1B2 (10–487) (Homo sapiens, UniProt Q01064).
T3 construct: PDE1B2 (10–487)
Put plainly: PDE activity assay, PDE1B2 catalytic domain. The class given is biochemical.

In another data set the target is T4, PDE7A1 (130–482) (Homo sapiens, UniProt Q13946).
T4 construct: PDE7A1 (130–482)
The data set is described as follows: PDE activity assay, PDE7A1 catalytic domain. The class given is biochemical.

Data set [1] is described as follows: Lipid-water distribution coefficient, shake-flask 1-octanol/water. Type of data set: physicochemical. To be noted: 1-octanol/water (1:1), means of at least three independent tests.
Data set [2] in a line: Oxygen Radical Absorbance Capacity (ORAC-FL) assay. To be noted: Trolox as standard.
Description: The assays were performed in 75 mM PBS (pH 7.4) and all the tested compounds were dissolved in DMSO and diluted with the PBS. Trolox was used as a standard (1–10 μM final concentration). The tested compounds at different concentrations (20 μL, final concentration: 2 μM) and fluorescein (FL, 120 μL, final concentration: 300 nM) were placed in the wells of a black 96-well plate. The mixture was incubated for 10 min at 37 °C and then, APPH solution (60 μL, final concentration: 12 mM diluted by 75 mM PBS) was added rapidly. […] A blank (FL + AAPH), with PBS replacing the compounds and Trolox was used for calibration in each assay. The compounds were tested at different concentrations (0.5–10 μM). The experiments were performed in three independent runs for each sample. The fluorescence measurements were normalized to that of the blank (without antioxidant). The area under the fluorescence decay curve (AUC) was calculated using the following equation (eq. 2):
where f0 is the fluorescence reading at 0 min and fi is the fluorescence reading at time i. The net AUC was calculated by the expression AUCsample − AUCblank. Regression equations between net AUC and Trolox concentrations were calculated. The final results were expressed in μM of Trolox equivalent/μM of pure compounds.
The target in another data set is T5, PDE2A3 (580–941) (Homo sapiens, UniProt O00408).
T5 construct: PDE2A3 (580–941)
The data set is described as follows: PDE activity assay, PDE2A3 catalytic domain. The class given is biochemical.

Another data set addresses T6, PDE10A2 (448–789) (Homo sapiens, UniProt Q9Y233).
T6 construct: PDE10A2 (448–789)
Put plainly: PDE activity assay, PDE10A2 catalytic domain. Type of data set: biochemical.

Data set [3] concerns SH-SY5Y cells. The data set is described as follows: Intracellular antioxidant activity (DCFH-DA, t-BuOOH). The class given is cell-based, human. As to conditions: t-BuOOH-induced; 5 μM of 16 vs 10 μM of Trolox. As to the method: Cell culture was performed as reported previously. The human neuron-like cell line SH-SY5Y was obtained from the Institute of Biochemistry and Cell Biology, Shanghai Institute for Biological Sciences (Shanghai, China). The cells were cultured at 37 °C in a humidified atmosphere of 5% CO2 in Dulbecco’s modified Eagle’s medium (DMEM, GIBCO) supplemented with 10% fetal calf serum (FCS, GIBCO), 1 mM glutamine, 100 IU/mL penicillin, and 100 μg/mL streptomycin.
The antioxidant activity was determined as reported previously. The SH-SY5Y cells were seeded at a density of 1 × 10^4 cells/well in a 96-well plate. After 24 h, the culture medium was replaced with medium containing tested compounds, and the cells were cultured for an additional 24 h. Then, the cells were washed with PBS and incubated with 5 μM DCFH-DA (diluted by PBS) at 37 °C for 30 min. […] Then, the fluorescence of the cells in each well was measured (λexcitation = 485 nm, λemission = 535 nm) with a multifunctional microplate reader (Flex Station 3). The antioxidant activity was expressed as a percentage relative to that of the control cells and calculated using the formula (Ft – Fnt)/(Ft’ – Fnt) ×100, where Ft is the fluorescence value of the cells treated with the tested compound, Ft’ is the fluorescence value of the cells not treated with the tested compound, and Fnt is the fluorescence value of the cells treated with t-BuOOH.

Data set [4] in a line: Metal-chelating capacity by UV-vis spectrophotometry. As to conditions: 30% (v/v) ethanol/buffer, pH 7.4. Type of data set: physicochemical. As to the method:
The experiments were performed according to previously reported methods. The metal chelation was monitored spectrophotometrically using a UV–vis spectrophotometer. […].

The target of another data set is PDE5A1 (535–860) (Homo sapiens, UniProt O76074). The data set is described as follows: PDE activity assay, PDE5A1 catalytic domain. Type of data set: biochemical.
Data set [5] is described as follows: PAMPA-BBB in vitro blood-brain barrier permeation assay. The class given is in vitro ADME. On the technique in general: The PAMPA barrier holds no transporters, so it reflects passive diffusion.
Description: The blood–brain barrier penetration capacity of the compounds was evaluated by using the parallel artificial membrane permeation assay (PAMPA). […] The porcine brain lipid (PBL) was obtained from Avanti Polar Lipids. The donor microplate (PVDF membrane, pore size of 0.45 nm) and the acceptor microplate were from Millipore. The acceptor 96-well microplate (COSTAR) was filled with 300 μL of a PBS/EtOH mixture (7:3) and the filter membrane was impregnated with 4 μL of PBL in dodecane (20 mg/mL). The compounds were dissolved in DMSO at a concentration of 5 mg/mL and diluted with the PBS/EtOH mixture (7:3) to a concentration of 100 μg /mL. Then, 200 μL of this solution was added to the donor wells and the wells were carefully placed on the acceptor plate, which was then incubated for 10 h at 25 °C in a vibrationless environment. After the incubation, the donor plate was removed and the concentration of compounds in the acceptor wells was determined with a UV plate reader (Flexstation 3). Each sample was analyzed at five wavelengths in four wells, and at least three independent runs were performed. The results are expressed as the mean ± standard deviation. In these experiments, 13 quality control standards of known BBB permeability were included to validate the analysis set.
where Vd is the volume in the donor well, Va is the volume in acceptor well, A is the filter area, t is the permeation time, [drug]acceptor is the absorbance of the compound in the acceptor well, and [drug]equilibrium is the theoretical equilibrium absorbance.
The target of another data set is T7, Aβ1-42 (Homo sapiens, UniProt P05067).
T7 construct: purchased Sigma
The data set is described as follows: Transmission electron microscopy (TEM) assay of Aβ1-42. As to conditions: [Aβ1-42] = 25 μM, compound 50 μM, [Cu^2+] = 25 μM, 37 °C, 24 h. Type of data set: biochemical. The protocol: The assays were performed as reported previously. For the TEM assay of copper (II)-induced Aβ1-42 aggregation and the disaggregation of the fibrils, the samples were pretreated as described for the ThT assay. Samples (10 μL) were placed on a carbon-coated copper/rhodium grid for 2 min. Then, each grid was stained with uranyl acetate (1%, 5 μL) for 2 min. After the excess staining solution was drained off, the specimen was transferred for imaging by a transmission electron microscope (JEOL JEM-1400).

In the next data set the target is T8, PDE3A (679–1087) (Homo sapiens, UniProt Q14432).
T8 construct: PDE3A (679–1087)
Put plainly: PDE activity assay, PDE3A catalytic domain. Type of data set: biochemical.

The nature of data set [6]: Cu-ascorbate redox system (CCA fluorescence). As to conditions: [Cu^2+] = 5 μM, [16] = 15 μM, ascorbate 150 μM, CCA 50 μM, PBS pH 7.4. The protocol:
The experiments were performed as reported previously. […]. Then, ascorbate (150 μM) was added to the solution, and the fluorescence was recorded every 20 s (λexcitation = 395 nm, λemission = 450 nm). Each experiment was performed in triplicate. All test solutions contained 1 μM desferryl and 0.1% methanol.

A further data set deals with T9, PDE8A1 (480–820) (Homo sapiens, UniProt O60658).
T9 construct: PDE8A1 (480–820)
The data set is described as follows: PDE activity assay, PDE8A1 catalytic domain. The class given is biochemical.

Data set [7] deals with SH-SY5Y cells. The data set is described as follows: MTT cytotoxicity assay. Type of data set: cell-based, human. To be noted: below the 10 μM concentration, 48 h. (In general: Formazan colour is commonly taken as a measure of viable cells.)

T7 sequence (P05067 672-713 limits assumed): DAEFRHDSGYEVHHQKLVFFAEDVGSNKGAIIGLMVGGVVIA
T6 sequence (Q9Y233 714-1055): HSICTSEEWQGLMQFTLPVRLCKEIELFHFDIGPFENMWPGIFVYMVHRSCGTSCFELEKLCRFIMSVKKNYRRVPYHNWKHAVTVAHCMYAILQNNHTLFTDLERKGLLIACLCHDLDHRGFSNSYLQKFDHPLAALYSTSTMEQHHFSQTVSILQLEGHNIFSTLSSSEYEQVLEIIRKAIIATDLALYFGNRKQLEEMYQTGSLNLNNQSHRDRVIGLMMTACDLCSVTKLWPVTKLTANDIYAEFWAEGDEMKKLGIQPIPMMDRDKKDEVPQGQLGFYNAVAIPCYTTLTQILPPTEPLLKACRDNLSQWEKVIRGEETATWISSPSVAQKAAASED
T5 sequence (O00408 580-941): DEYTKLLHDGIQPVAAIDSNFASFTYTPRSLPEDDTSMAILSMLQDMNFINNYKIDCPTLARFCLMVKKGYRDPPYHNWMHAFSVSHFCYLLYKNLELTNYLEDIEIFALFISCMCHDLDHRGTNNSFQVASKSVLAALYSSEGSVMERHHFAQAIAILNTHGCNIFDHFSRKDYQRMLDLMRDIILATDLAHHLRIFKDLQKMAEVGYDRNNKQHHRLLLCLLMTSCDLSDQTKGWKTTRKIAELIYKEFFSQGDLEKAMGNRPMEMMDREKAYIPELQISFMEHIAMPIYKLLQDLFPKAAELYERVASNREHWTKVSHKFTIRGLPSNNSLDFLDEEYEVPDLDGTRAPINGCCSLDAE
T8 sequence (Q14432 679-1087): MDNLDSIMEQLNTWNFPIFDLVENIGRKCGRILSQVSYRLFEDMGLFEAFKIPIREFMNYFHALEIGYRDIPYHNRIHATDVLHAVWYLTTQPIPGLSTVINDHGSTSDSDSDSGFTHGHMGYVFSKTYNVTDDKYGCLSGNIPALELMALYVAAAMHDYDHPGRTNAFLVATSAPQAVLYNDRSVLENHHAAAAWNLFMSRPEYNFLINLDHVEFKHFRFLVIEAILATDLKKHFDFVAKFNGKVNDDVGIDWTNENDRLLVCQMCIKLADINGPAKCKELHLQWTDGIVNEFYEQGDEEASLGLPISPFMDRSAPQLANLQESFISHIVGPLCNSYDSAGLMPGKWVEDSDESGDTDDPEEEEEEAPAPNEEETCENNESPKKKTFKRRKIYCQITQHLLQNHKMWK
T2 sequence (P05067 672-713 limits assumed): as the sequence (P05067 672-713 limits assumed) above
T1 sequence (Q08499 388-715): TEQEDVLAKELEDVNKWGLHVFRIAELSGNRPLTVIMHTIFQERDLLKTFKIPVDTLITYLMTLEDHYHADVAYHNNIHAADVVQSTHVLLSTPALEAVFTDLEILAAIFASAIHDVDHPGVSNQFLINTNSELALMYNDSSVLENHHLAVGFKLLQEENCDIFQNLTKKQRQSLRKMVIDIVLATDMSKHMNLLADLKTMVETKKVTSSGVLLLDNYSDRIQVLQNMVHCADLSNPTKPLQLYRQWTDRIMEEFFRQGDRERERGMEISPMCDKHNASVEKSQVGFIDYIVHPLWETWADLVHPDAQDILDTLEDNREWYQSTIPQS
T3 sequence (Q01064 10-487 isoform Q01064-2): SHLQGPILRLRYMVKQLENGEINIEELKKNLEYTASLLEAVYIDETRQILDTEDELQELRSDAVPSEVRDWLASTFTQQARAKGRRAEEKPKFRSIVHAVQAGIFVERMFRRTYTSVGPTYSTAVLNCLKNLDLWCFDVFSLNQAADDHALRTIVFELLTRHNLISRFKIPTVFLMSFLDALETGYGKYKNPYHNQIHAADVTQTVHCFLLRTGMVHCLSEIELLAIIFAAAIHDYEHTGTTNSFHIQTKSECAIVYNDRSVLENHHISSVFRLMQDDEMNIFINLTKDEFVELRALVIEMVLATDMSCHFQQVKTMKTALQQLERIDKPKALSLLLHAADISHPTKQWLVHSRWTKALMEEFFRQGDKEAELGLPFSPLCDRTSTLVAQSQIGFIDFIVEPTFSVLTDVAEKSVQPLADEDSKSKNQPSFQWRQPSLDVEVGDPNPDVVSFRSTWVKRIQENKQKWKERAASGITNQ
T4 sequence (Q13946 130-482): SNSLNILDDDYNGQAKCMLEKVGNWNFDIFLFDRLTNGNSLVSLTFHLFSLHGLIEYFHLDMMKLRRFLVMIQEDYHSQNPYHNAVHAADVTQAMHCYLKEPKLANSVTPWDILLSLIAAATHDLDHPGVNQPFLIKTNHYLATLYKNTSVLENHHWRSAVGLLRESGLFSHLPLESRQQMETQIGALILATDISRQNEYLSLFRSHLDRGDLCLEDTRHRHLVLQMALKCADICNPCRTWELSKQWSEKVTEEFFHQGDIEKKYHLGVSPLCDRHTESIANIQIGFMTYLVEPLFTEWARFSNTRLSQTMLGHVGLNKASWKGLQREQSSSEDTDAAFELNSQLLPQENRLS
T9 sequence (O60658 480-820): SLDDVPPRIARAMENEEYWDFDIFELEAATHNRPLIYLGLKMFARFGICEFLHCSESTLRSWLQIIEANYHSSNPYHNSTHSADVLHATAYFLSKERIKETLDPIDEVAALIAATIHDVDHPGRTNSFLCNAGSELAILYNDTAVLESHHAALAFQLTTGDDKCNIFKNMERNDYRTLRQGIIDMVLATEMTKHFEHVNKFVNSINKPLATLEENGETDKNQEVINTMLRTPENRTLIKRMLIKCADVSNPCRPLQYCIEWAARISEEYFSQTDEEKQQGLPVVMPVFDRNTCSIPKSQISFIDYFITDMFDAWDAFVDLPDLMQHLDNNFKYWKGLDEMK
Description for PDE10A2 (448–789): (§1) The enzymatic activities of the catalytic domains of PDE9 and other PDEs were measured by using cGMP or cAMP as substrates. The assay buffer contained 20–50 mM Tris–HCl (pH 7.5–8.0), 10 mM MgCl2 or 4 mM MnCl2, 1 mM DTT, and 10–20 nM ^3H-cGMP or ^3H-cAMP (20000–30000 cpm/assay, GE Healthcare). The reaction was performed at room temperature for 15 min and then terminated by the addition of 0.2 M ZnSO4. The addition of 0.25 M BaSO4 precipitated the generated ^3H-GMP, whereas the unreacted ^3H-cGMP remained in solution. The radioactivity in the supernatant was measured in 2.5 mL with an Ultim Gold liquid scintillation counter. […] The IC50 values were calculated by nonlinear regression method by using GraphPad Prism 5.0 Software.
Description for PDE1B2 (10–487): as §1
Description for PDE2A3 (580–941): as §1
Description for PDE3A (679–1087): as §1
Description for PDE4D2 (86–413): as §1
Description for PDE5A1 (535–860): as §1
Description for PDE7A1 (130–482): as §1
Description for PDE8A1 (480–820): as §1

For `COc1ccc(CN[C@H](C)c2nc3c(cnn3C3CCCC3)c(=O)[nH]2)c(O)c1` [Compound 16], the IC50 at PDE4D2 (86–413) was 25000 nM; against PDE1B2 (10–487), 17000 nM; against PDE7A1 (130–482) it was > 50000 nM; at PDE2A3 (580–941), > 50000 nM; against PDE10A2 (448–789) it was 6900 nM; against PDE5A1 (535–860), 1900 nM. Besides, the figures for the IC50 against PDE3A (679–1087) and at PDE8A1 (480–820) were > 10000 nM and > 50000 nM, respectively. The “disaggregation of Cu^2+-induced Aβ1-42 fibrils (ThT)” value on Aβ1-42 fibrils was 64.6%. Also, the logP at 30 min in data set [1] is 1.1. In addition, the ORAC in [2] was 4.47 ± 0.10 μmol of Trolox equiv/μmol tested compound. The “oxygen radical absorbance capacity, ORAC-FL value” in data set [2] came out at 4.47 ORAC-FL units. The “intracellular antioxidant activity (ROS, DCFH-DA)” value in the data set with SH-SY5Y cells [3] is reported as “superior antioxidant activity to that of Trolox”. Further, in [4], the “chelation of Cu^2+, Fe^2+, Zn^2+ (UV-vis absorbance changes)” value is “formation of 16-Metal ion (II) complex”. The “chelation of Fe^3+ (UV-vis)” value in [4] is given as “failed to chelate Fe^3+ effectively”. Moreover, the Papp at 10 h, 100 μg/mL in [5] (PAMPA, PBS:EtOH (70:30), mean ± SD of three independent experiments, read-out: Permeability) was determined as 17 ×10⁻⁶ cm/s. Moreover, the “prediction of penetration into the CNS” value in data set [5] (from PAMPA-BBB Pe) is “CNS+ (Compounds of high BBB permeation (CNS+) Pe > 4.7)”. In addition, the “Aβ fibrils by TEM, disaggregation of preformed fibrils” value at Aβ1-42 is given as “drastically reduced the amount of Aβ fibrils”. For the same compound, at Aβ1-42, the “Aβ fibrils by TEM, inhibition of Cu^2+-induced aggregation” value is listed as “fewer fibrils were observed than in the presence of CQ”. For the same compound, in data set [6], the “copper redox cycling, OH· production (7-hydroxyl-CCA fluorescence)” value was “fully inhibited”. Besides, in the data set with SH-SY5Y cells [7], the “cytotoxicity toward SH-SY5Y cells (MTT)” value is given as “nearly no toxicity”.

By IC50 is commonly meant the concentration needed to halve the response being measured. Low readings indicate higher potency, high ones lower potency. One may read the logP as a log measure of how a compound divides between an organic and an aqueous phase. A lower logP goes with a more hydrophilic compound.
